Assay results: ChEMBL document CHEMBL4706727, “Discovery of 2,4-1H-Imidazole Carboxamides as Potent and Selective TAK1 Inhibitors” (ACS Med Chem Lett, 2021)

Test system: HCT-15
Test: Cytotoxicity against TNFalpha-induced human HCT-15 cells assessed as reduction in cell viability preincubated for 2 hrs followed by TNFalpha stimulation and measured after 72 hrs by celltiter-glo assay
Format: functional, cell-based

COc1cc(O)c2c(c1)/C=C/C[C@H](O)[C@H](O)C(=O)/C=C\C[C@H](C)OC2=O
EC50: 2 nM
